Data as given in patent US20170158702A1, “MULTIVALENT RAS BINDING COMPOUNDS” (KYRAS THERAPEUTICS, INC., priority 2015, published 2017).
Counter-ions that a name gives are not always drawn.

Experiments:
Format in all cases: cell-based
[1] = test system: MIA PaCa-2; assay: Viability assay with MIA PaCa-2; settings: MIA PaCa-2, viability assay per Example 57
Experimental: (§1) NCI-H460 (Epithelial lung tissue; carcinoma; large cell lung cancer) were cultured in RPMI Medium 1640 (Invitrogen-22400105) supplemented with 10% fetal bovine serum (FBS; Invitrogen-10099141). All the cell lines were maintained in a humidified incubator at 37° C. with 5% CO2. Cell culture media and supplements were purchased from Invitrogen, and tissue culture flasks were purchased from Corning, 96-well plates were purchased from Greiner. CellTiter-Glo Luminescent Cell Viability Assay kits were purchased from Promega (Promega-G7573), cells counter Vi-Cell was purchased from Beckman, D300e digital dispenser was purchased from Tecan, detection instrument Envision was purchased from PerkinElmer.
(§2) Paclitaxel was purchased from SELLECK, test compounds, such as any one of the compounds disclosed herein, attained solubility in DMSO and when diluted into culture media. DMSO, solutions containing the test compounds, and culture media were warmed to 37° C. or room temperature for the solution preparation and dilutions.
(§3) NCI-H460 Cell line were seeded in 96-well plates (1200/well) and allowed to adhere to overnight (100 uL/well), for drug treatments with 2 fold dilution, 9 dose points, triplicates or vehicle control, compound stock solutions were prepared in DMSO and use D300e digital dispenser to add compounds to the wells to give the indicated final drug concentrations. Final DMSO concentration was 0.5%. Cellular ATP concentrations were assessed by using the CellTiter-Glo Cell Viability Assay as per the manufacturer's instructions 72 h after compounds addition. Additional cells lines were assayed with any one of the compounds disclosed herein according to the procedures described for the viability assay with NCI-H460.
A viability assay with MIA PaCa-2 (Epithelial pancreas tissue; carcinoma) was performed with compounds listed in Table 15, according to the procedures described in Example 57.

[2] = test system: NCI-H460; assay: Viability assay with NCI-H460 (CellTiter-Glo cytotoxicity assay, 72 h); settings: NCI-H460 cell line, 72 h after compounds addition
Experimental: as §1, §2, §3

[3] = test system: HT-29; assay: Viability assay with HT-29; settings: HT-29, viability assay per Example 57
Experimental: as §1, §2, §3
A viability assay with HT-29 (Colorectal adenocarcinoma) was performed with compounds listed in Table 18 according to the procedures described in Example 57.

| Structure (SMILES) | EC50 [1] | EC50 [2] | EC50 [3] |
| --- | --- | --- | --- |
| Cn1nccc1CN1CCN(Cc2ccc3c(c2)c(-c2ccc(OC(F)(F)F)cc2)cn3CCCN)CC1 [C128; HCl] | ≤ 5 µM | ≤ 5 µM | ≤ 5 µM |
| NCCCn1cc(-c2ccc(OC(F)(F)F)cc2)c2cc(NC3CCN(Cc4ccccc4Cl)CC3)ccc21 [C129; HCl] | ≤ 5 µM | ≤ 5 µM | ≤ 5 µM |
| NCCCn1cc(-c2ccc(OC(F)(F)F)cc2)c2cc(CN3CCC(CC(F)(F)F)CC3)ccc21 [C130; HCl] | ≤ 5 µM | ≤ 5 µM | ≤ 5 µM |
| NCCCn1cc(-c2ccccc2CCN)c2cc(CN3CCN(Cc4ccccc4Cl)CC3)ccc21 [C131; HCl] | – | – | ≤ 5 µM |
| CC(C)(N)CCCn1cc(-c2ccc(OC(F)(F)F)cc2)c2cc(CN3CCN(Cc4ccccc4Cl)CC3)ccc21 [C132; Formic acid] | ≤ 5 µM | ≤ 5 µM | ≤ 5 µM |
| COc1ccc(-c2cn(CCCCN)c3ccc(CN4CC5CCC(C4)N5Cc4ccccc4Cl)cc23)cc1 [C133; HCl] | ≤ 5 µM | ≤ 5 µM | ≤ 5 µM |
| NC1CCC(n2cc(-c3ccc(OC(F)(F)F)cc3)c3cc(CN4CCN(Cc5ccccc5Cl)CC4)ccc32)C1 (stereo not shown) [C134; HCl] | ≤ 5 µM | ≤ 5 µM | ≤ 5 µM |
| NCCCn1cc(-c2ccc(OC(F)(F)F)cc2)c2cc(CN3CCN(Cc4ccc(Cl)cc4Cl)CC3)ccc21 [C135; HCl] | ≤ 5 µM | ≤ 5 µM | ≤ 5 µM |
| NCCCn1cc(-c2ccc(OC(F)(F)F)cc2)c2cc(CN3CCN(Cc4ccc(C(F)(F)F)cc4)CC3)ccc21 [C136; HCl] | ≤ 5 µM | ≤ 5 µM | ≤ 5 µM |
| NCCCn1cc(-c2ccc(OC(F)(F)F)cc2)c2cc(CN3CCN(Cc4ccc(Cl)cc4)CC3)ccc21 [C137; HCl] | ≤ 5 µM | ≤ 5 µM | ≤ 5 µM |
| NCCCn1cc(-c2ccc(OC(F)(F)F)cc2)c2cc(CN3CCN(Cc4ccc(Cl)c(Cl)c4)CC3)ccc21 [C138; HCl] | ≤ 5 µM | ≤ 5 µM | ≤ 5 µM |
| Cc1cc(Cl)ccc1CN1CCN(Cc2ccc3c(c2)c(-c2ccc(OC(F)(F)F)cc2)cn3CCCN)CC1 [C139; HCl] | ≤ 5 µM | ≤ 5 µM | ≤ 5 µM |
| NCCCn1cc(-c2ccc(OC(F)(F)F)cc2)c2cc(CN3CCN(CCc4ccccc4Cl)CC3)ccc21 [C140; HCl] | ≤ 5 µM | ≤ 5 µM | ≤ 5 µM |
| COc1ccc(-c2cn(CCCN)c3ccc(CN4CCN(Cc5ccccc5Cl)CC4)cc23)cn1 [C141; HCl] | ≤ 5 µM | ≤ 5 µM | ≤ 5 µM |
| NCCCn1cc(-c2ccc(CO)cc2)c2cc(CN3CCN(Cc4ccccc4Cl)CC3)ccc21 [C142; Formic Acid] | 5 to 10 µM | ≤ 5 µM | 5 to 10 µM |
| COc1ncc(-c2cn(CCCN)c3ccc(CN4CCN(Cc5ccccc5Cl)CC4)cc23)cn1 [C143; HCl] | 5 to 10 µM | 5 to 10 µM | 5 to 10 µM |
| NCCCn1cc(-c2ccc(OC(F)(F)F)cc2)c2c(CN3CCN(CCOc4ccc(Cl)cc4)CC3)cccc21 [C144; HCl] | ≤ 5 µM | ≤ 5 µM | ≤ 5 µM |
| Cc1cccnc1CN1CCN(Cc2ccc3c(c2)c(-c2ccc(OC(F)(F)F)cc2)cn3CCCN)CC1 [C145; HCl] | ≤ 5 µM | ≤ 5 µM | ≤ 5 µM |
| Cc1ccc(CN2CCN(Cc3ccc4c(c3)c(-c3ccc(OC(F)(F)F)cc3)cn4CCCN)CC2)cc1 [C146; HCl] | ≤ 5 µM | ≤ 5 µM | ≤ 5 µM |
| NCCCn1cc(-c2ccc(OC(F)(F)F)cc2)c2c(CN3CCN(CCc4ccccc4Cl)CC3)cccc21 [C147; HCl] | ≤ 5 µM | ≤ 5 µM | ≤ 5 µM |
| NCc1ccc(-n2cc(-c3ccc(OC(F)(F)F)cc3)c3cc(CN4CCN(Cc5ccccc5Cl)CC4)ccc32)cc1 [C149; Formic Acid] | ≤ 5 µM | ≤ 5 µM | ≤ 5 µM |
| NCc1cccc(-n2cc(-c3ccc(OC(F)(F)F)cc3)c3cc(CN4CCN(Cc5ccccc5Cl)CC4)ccc32)c1 [C150; Formic acid] | ≤ 5 µM | ≤ 5 µM | ≤ 5 µM |
| NCCCn1cc(-c2ccc(OC(F)(F)F)cc2)c2cc(CN3CCN(Cc4ncccc4Cl)CC3)ccc21 [C151; HCl] | ≤ 5 µM | ≤ 5 µM | ≤ 5 µM |
| NCCCn1cc(-c2cccc(CO)c2)c2cc(CN3CCN(Cc4ccccc4Cl)CC3)ccc21 [C152; HCl] | ≤ 5 µM | ≤ 5 µM | ≤ 5 µM |
